Assay results taken from patent US10294202B2, “Pyrrolidinones as herbicides” (FMC Corporation, priority 2013, dated 2019).

How the values were obtained:
Experiment in all cases: Test D pre-/postemergence herbicide test
[1] = system: chickweed; type: in vivo, Stellaria media; conditions: Postemergence, Chickweed, scale 0 to 100
Text: (§1) Seeds of plant species selected from bluegrass (annual bluegrass, Poa annua), blackgrass (Alopecurus myosuroides), canarygrass (littleseed canarygrass, Phalaris minor), chickweed (common chickweed, Stellaria media), galium (catchweed bedstraw, Galium aparine), bromegrass, downy (downy bromegrass, Bromus tectorum), field poppy (Papaver rhoeas), field violet (Viola arvensis), foxtail, green (green foxtail, Setaria viridis), deadnettle (henbit deadnettle, Lamium amplexicaule), ryegrass, Italian (Italian ryegrass, Lolium multiflorum), kochia (Kochia scoparia), lambsquarters (Chenopodium album), oilseed rape (Brassica napus), pigweed (Amaranthus retroflexus), chamomile (scentless chamomile, Matricaria inodora), Russian thistle (Salsola kali), speedwell (bird's-eye speedwell, Veronica persica), barley, spring (spring barley, Hordeum vulgare), wheat, spring (spring wheat, Triticum aestivum), buckwheat, wild (wild buckwheat, Polygonum convolvulus), mustard, wild (wild mustard, Sinapis arvensis), oat, wild (wild oat, Avena fatua), radish, wild (wild radish, Raphanus raphanistrum), […]), barley, winter (winter barley, Hordeum vulgare), and wheat, winter (winter wheat, Triticum aestivum) were planted into a silt loam soil and treated preemergence with test chemicals formulated in a non-phytotoxic solvent mixture which included a surfactant. At the same time, these species were planted in pots containing Redi-Earth® planting medium (Scotts Company, 14111 Scottslawn Road, Marysville, Ohio 43041) comprising spaghnum peat moss, vermiculite, wetting agent and starter nutrients and treated with postemergence applications of the test chemicals formulated in the same manner. Plants ranged in height from 2 to 18 cm (1- to 4-leaf stage). Treated plants and controls were maintained in a controlled growth environment for 7 to 21 days after which time all species were compared to controls and visually evaluated. Plant response ratings, summarized in Table D, are based on a scale of 0 to 100 where 0 is no effect and 100 is complete control. A dash (-) response means no test result.

[2] = system: kochia; type: in vivo, Kochia scoparia; conditions: for Plant response rating: Kochia, scale 0 to 100; for Plant response rating, Kochia: scale 0 to 100 (0 no effect, 100 complete control)
Text: as §1

[3] = system: chamomile; type: in vivo, Matricaria inodora; conditions: for Plant response rating: Chamomile, scale 0 to 100; for Plant response rating, Chamomile: scale 0 to 100 (0 no effect, 100 complete control)
Text: as §1

[4] = system: wheat, spring; type: in vivo, Triticum aestivum; conditions: for Plant response rating: Postemergence, Wheat, Spring, scale 0 to 100; for Plant response rating, Wheat, Spring: Preemergence, scale 0 to 100 (0 no effect, 100 complete control)
Text: as §1

[5] = system: wheat, winter; type: in vivo, Triticum aestivum; conditions: for Plant response rating: Postemergence, Wheat, Winter, scale 0 to 100; for Plant response rating, Wheat, Winter: Preemergence, scale 0 to 100 (0 no effect, 100 complete control)
Text: as §1

[6] = system: oat, wild; type: in vivo, Avena fatua; conditions: for Plant response rating: Postemergence, Oat, Wild, scale 0 to 100; for Plant response rating, Oat, Wild: Preemergence, scale 0 to 100 (0 no effect, 100 complete control)
Text: as §1

[7] = system: windgrass; type: in vivo, Apera spica-venti; conditions: for Plant response rating: Postemergence, Windgrass, scale 0 to 100; for Plant response rating, Windgrass: Preemergence, scale 0 to 100 (0 no effect, 100 complete control)
Text: as §1

O=C1NCC(c2ccc(F)c(F)c2)C1C(=O)Nc1ccccc1C(F)(F)F (racemic) [Compound 6]
Plant response rating ([1]; 16 g ai/ha): 0 | Plant response rating ([1]; 31 g ai/ha): 0 | Plant response rating ([1]; 62 g ai/ha): 0 | Plant response rating ([1]; 125 g ai/ha): 10 | Plant response rating ([1]; 250 g ai/ha): 30 | Plant response rating ([2]; Postemergence, 16 g ai/ha): 0 | Plant response rating ([2]; Postemergence, 31 g ai/ha): 5 | Plant response rating ([2]; Postemergence, 62 g ai/ha): 5 | Plant response rating ([2]; Postemergence, 125 g ai/ha): 5 | Plant response rating ([2]; Postemergence, 250 g ai/ha): 10 | Plant response rating, Kochia ([2]; Preemergence, 62 g ai/ha): 30 | Plant response rating, Kochia ([2]; Preemergence, 16 g ai/ha): 0 | Plant response rating, Kochia ([2]; Preemergence, 31 g ai/ha): 0 | Plant response rating ([2]; Preemergence, 125 g ai/ha): 40 | Plant response rating ([2]; Preemergence, 250 g ai/ha): 50 | Plant response rating ([3]; Postemergence, 16 g ai/ha): 0 | Plant response rating ([3]; Postemergence, 31 g ai/ha): 0 | Plant response rating ([3]; Postemergence, 62 g ai/ha): 0 | Plant response rating ([3]; Postemergence, 125 g ai/ha): 0 | Plant response rating ([3]; Postemergence, 250 g ai/ha): 0 | Plant response rating, Chamomile ([3]; Preemergence, 62 g ai/ha): 30 | Plant response rating, Chamomile ([3]; Preemergence, 16 g ai/ha): 0 | Plant response rating, Chamomile ([3]; Preemergence, 31 g ai/ha): 0 | Plant response rating ([3]; Preemergence, 125 g ai/ha): 70 | Plant response rating ([3]; Preemergence, 250 g ai/ha): 90 | Plant response rating ([4]; 16 g ai/ha): 0 | Plant response rating ([4]; 31 g ai/ha): 0 | Plant response rating ([4]; 62 g ai/ha): 5 | Plant response rating ([4]; 125 g ai/ha): 5 | Plant response rating ([4]; 250 g ai/ha): 5 | Plant response rating, Wheat, Spring ([4]; 62 g ai/ha): 0 | Plant response rating, Wheat, Spring ([4]; 125 g ai/ha): 0 | Plant response rating, Wheat, Spring ([4]; 16 g ai/ha): 0 | Plant response rating, Wheat, Spring ([4]; 31 g ai/ha): 0 | Plant response rating, Wheat, Spring ([4]; 250 g ai/ha): 0 | Plant response rating ([5]; 16 g ai/ha): 0 | Plant response rating ([5]; 31 g ai/ha): 0 | Plant response rating ([5]; 62 g ai/ha): 0 | Plant response rating ([5]; 125 g ai/ha): 0 | Plant response rating ([5]; 250 g ai/ha): 0 | Plant response rating, Wheat, Winter ([5]; 62 g ai/ha): 0 | Plant response rating, Wheat, Winter ([5]; 125 g ai/ha): 0 | Plant response rating, Wheat, Winter ([5]; 16 g ai/ha): 0 | Plant response rating, Wheat, Winter ([5]; 31 g ai/ha): 0 | Plant response rating, Wheat, Winter ([5]; 250 g ai/ha): 0 | Plant response rating ([6]; 16 g ai/ha): 0 | Plant response rating ([6]; 31 g ai/ha): 0 | Plant response rating ([6]; 62 g ai/ha): 0 | Plant response rating ([6]; 125 g ai/ha): 0 | Plant response rating ([6]; 250 g ai/ha): 5 | Plant response rating, Oat, Wild ([6]; 62 g ai/ha): 0 | Plant response rating, Oat, Wild ([6]; 125 g ai/ha): 0 | Plant response rating, Oat, Wild ([6]; 16 g ai/ha): 0 | Plant response rating, Oat, Wild ([6]; 31 g ai/ha): 0 | Plant response rating, Oat, Wild ([6]; 250 g ai/ha): 0 | Plant response rating ([7]; 16 g ai/ha): 0 | Plant response rating ([7]; 31 g ai/ha): 0 | Plant response rating ([7]; 62 g ai/ha): 0 | Plant response rating ([7]; 125 g ai/ha): 0 | Plant response rating ([7]; 250 g ai/ha): 0 | Plant response rating, Windgrass ([7]; 62 g ai/ha): 0 | Plant response rating, Windgrass ([7]; 125 g ai/ha): 100 | Plant response rating, Windgrass ([7]; 16 g ai/ha): 0 | Plant response rating, Windgrass ([7]; 31 g ai/ha): 0 | Plant response rating, Windgrass ([7]; 250 g ai/ha): 100
